For experiment [1], the target named is T1, NAGK-SmBiT in complex with PII-LgBiT (ligand on NAGK) (Synechocystis sp. PCC 6803, UniProt P73326).
T1 construct: gene argB; hexameric NAGK with N-terminal His6, C-terminal 16-aa linker and SmBiT; PII trimer with C-terminal Strep-tag and LgBiT; both from E. coli Lemo21; with Nitrogen regulatory protein P-II
The experiment can be described thus: NanoBiT luminescence, Arg titration of PII-NAGK complex. Particulars: 2 mM ATP or 1 mM ATP/1 mM ADP; allosteric; pH 7.6, 2 mM MgCl2, 30 °C. The class given is binding.

Experiment [2] addresses T1, NAGK-SmBiT in complex with PII-LgBiT (ligand on NAGK). The experiment can be described thus: NanoBiT luminescence, stimulation of PII-NAGK complex formation. The class given is binding. Particulars: 0-50 mM NAG, 2 mM ATP; 10 pM PII-LgBiT, 5 nM NAGK-SmBiT; pH 7.6, 2 mM MgCl2, 30 °C.

T1 sequence (P73326 whole entry): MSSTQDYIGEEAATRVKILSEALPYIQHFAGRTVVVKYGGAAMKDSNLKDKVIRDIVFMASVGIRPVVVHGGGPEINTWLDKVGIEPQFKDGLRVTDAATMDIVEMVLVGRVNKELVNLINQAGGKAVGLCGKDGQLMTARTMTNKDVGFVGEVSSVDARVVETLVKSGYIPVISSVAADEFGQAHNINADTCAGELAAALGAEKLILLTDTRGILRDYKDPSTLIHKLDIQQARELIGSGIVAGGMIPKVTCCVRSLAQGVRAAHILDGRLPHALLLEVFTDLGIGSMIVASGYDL
T1 sequence (Q55247 whole entry partner): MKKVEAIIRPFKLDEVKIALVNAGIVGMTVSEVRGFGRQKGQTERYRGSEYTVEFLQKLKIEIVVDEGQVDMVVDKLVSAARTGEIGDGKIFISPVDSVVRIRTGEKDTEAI

With `N=C(N)NCCC[C@H](N)C(=O)O` [Arg], in experiment [1], the “NanoBiT luminescence, Arg titration of PII-NAGK complex” value is “arginine was titrated to PII-LgBiT-NAGK-SmBiT complexes and luminescence was recorded”. `CC(=O)N[C@@H](CCC(=O)O)C(=O)O` [NAG]: the “NanoBiT luminescence, stimulation of PII-NAGK complex formation” value in experiment [2] was “increasing NAG concentrations caused a dramatic increase in PII-NAGK interaction”.

These data come from publication PMC8206089, “Split NanoLuc technology allows quantitation of interactions between PII protein and its receptors with unprecedented sensitivity and reveals transient interactions” (Scientific Reports, 2021).
